Source: PubChem BioAssay AID2060905 (Molecular Pharmacology Branch, DTP, NCI, 2025)

Tested on: 282377-053-R-J1-PDC complex spheroid viability
Assay: Anticancer human tumor 282377-053-R-J1-PDC patient-derived colon adenocarcinoma cell line growth inhibition [RAS]
Details: for IC50: curve of first compound; for viability, T/C: stronger effect = lower value
Outline: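 Tumour cells grown as complex spheroids with HUVEC endothelial cells and mesenchymal stem cells, treated with RAS pathway inhibitor combinations. Each agent spans half-log steps from near clinical Cmax, or 10 microM where Cmax is unknown.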

[1] = second compound 0.000949 µM, first compound 0.0316 µM
[2] = second compound 0.000949 µM, first compound 0.1 µM
[3] = second compound 0.000949 µM, first compound 0.316 µM
[4] = second compound 0.000949 µM, first compound 1 µM
[5] = second compound 0.003 µM, first compound 0.0316 µM
[6] = second compound 0.003 µM, first compound 0.1 µM
[7] = second compound 0.003 µM, first compound 0.316 µM
[8] = second compound 0.003 µM, first compound 1 µM
[9] = second compound 0.00949 µM, first compound 0.0316 µM
[10] = second compound 0.00949 µM, first compound 0.1 µM
[11] = second compound 0.00949 µM, first compound 0.316 µM
[12] = second compound 0.00949 µM, first compound 1 µM
[13] = second compound 0.03 µM, first compound 0.0316 µM
[14] = second compound 0.03 µM, first compound 0.1 µM
[15] = second compound 0.03 µM, first compound 0.316 µM
[16] = second compound 0.03 µM, first compound 1 µM
[17] = second compound 0.0949 µM, first compound 0.0316 µM
[18] = second compound 0.0949 µM, first compound 0.1 µM
[19] = second compound 0.0949 µM, first compound 0.316 µM
[20] = second compound 0.0949 µM, first compound 1 µM
[21] = second compound 0.3 µM, first compound 0.0316 µM
[22] = second compound 0.3 µM, first compound 0.1 µM
[23] = second compound 0.3 µM, first compound 0.316 µM
[24] = second compound 0.3 µM, first compound 1 µM
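Also: spheroids exposed to agents for seven days before readout.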
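For viability, T/C in this document: luminescence viability as percent of DMSO vehicle control wells.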

Question: What does the source list for `C=CC(=O)Nc1cc(Nc2nccc(-c3cn(C)c4ccccc34)n2)c(OC)cc1N(C)CCN(C)C` + CCn1c(-c2cc(N3CCN(C)CC3)cnc2C(C)OC)c2c3cc(ccc31)-c1csc(n1)CC(NC(=O)C1CC1C)C(=O)N1CCCC(N1)C(=O)OCC(C)(C)C2?
Answer: IC50 (second compound 0.000949 µM): > 1 µM; IC50 (second compound 0.003 µM): > 1 µM; IC50 (second compound 0.00949 µM): > 1 µM; IC50 (second compound 0.03 µM): > 1 µM; IC50 (second compound 0.0949 µM): > 1 µM; IC50 (second compound 0.3 µM): > 1 µM; viability, T/C (second compound 0.000949 µM, first compound 0.00316 µM): 96.5%; viability, T/C (second compound 0.000949 µM, first compound 0.01 µM): 109%; viability, T/C [1]: 78%; viability, T/C [2]: 86.9%; viability, T/C [3]: 83.4%; viability, T/C [4]: 91.6%; viability, T/C (second compound 0.003 µM, first compound 0.00316 µM): 87.3%; viability, T/C (second compound 0.003 µM, first compound 0.01 µM): 106%; viability, T/C [5]: 89.9%; viability, T/C [6]: 80.8%; viability, T/C [7]: 83.6%; viability, T/C [8]: 75.8%; viability, T/C (second compound 0.00949 µM, first compound 0.00316 µM): 102%; viability, T/C (second compound 0.00949 µM, first compound 0.01 µM): 90.8%; viability, T/C [9]: 97.5%; viability, T/C [10]: 84.8%; viability, T/C [11]: 73.8%; viability, T/C [12]: 80.3%; viability, T/C (second compound 0.03 µM, first compound 0.00316 µM): 83%; viability, T/C (second compound 0.03 µM, first compound 0.01 µM): 97.4%; viability, T/C [13]: 116%; viability, T/C [14]: 89.9%; viability, T/C [15]: 85.6%; viability, T/C [16]: 94.4%; viability, T/C (second compound 0.0949 µM, first compound 0.00316 µM): 95%; viability, T/C (second compound 0.0949 µM, first compound 0.01 µM): 92.5%; viability, T/C [17]: 97.8%; viability, T/C [18]: 78.6%; viability, T/C [19]: 112%; viability, T/C [20]: 91.7%; viability, T/C (second compound 0.3 µM, first compound 0.00316 µM): 84.9%; viability, T/C (second compound 0.3 µM, first compound 0.01 µM): 97.2%; viability, T/C [21]: 92%; viability, T/C [22]: 97.5%; viability, T/C [23]: 98.6%; viability, T/C [24]: 138%

Question: `NC1c2ccccc2OC12CCN(c1cnc3c(N4CCCc5ncccc54)n[nH]c3n1)CC2` (centres undefined) + CCn1c(-c2cc(N3CCN(C)CC3)cnc2C(C)OC)c2c3cc(ccc31)-c1csc(n1)CC(NC(=O)C1CC1C)C(=O)N1CCCC(N1)C(=O)OCC(C)(C)C2 was tested. Which IC50 (second compound 0.000949 µM) did it give?
Answer: > 10 µM

Question: What about the IC50 (second compound 0.003 µM) of the same compound?
Answer: > 10 µM

Question: What about the IC50 (second compound 0.00949 µM) of the same compound?
Answer: > 10 µM

Question: What about the IC50 (second compound 0.03 µM) of the same compound?
Answer: > 10 µM

Question: What about the IC50 (second compound 0.0949 µM) of the same compound?
Answer: > 10 µM

Question: And the IC50 (second compound 0.3 µM)?
Answer: > 10 µM

Question: And the viability, T/C [1]?
Answer: 96.6%

Question: And the viability, T/C [2]?
Answer: 102%

Question: And the viability, T/C [3]?
Answer: 87.7%

Question: What about the viability, T/C [4] of the same compound?
Answer: 99.9%

Question: What about the viability, T/C (second compound 0.000949 µM, first compound 3.16 µM) of the same compound?
Answer: 106%

Question: And the viability, T/C (second compound 0.000949 µM, first compound 10 µM)?
Answer: 140%

Question: And the viability, T/C [5]?
Answer: 97.4%

Question: And the viability, T/C [6]?
Answer: 102%

Question: And the viability, T/C [7]?
Answer: 96.3%

Question: And the viability, T/C [8]?
Answer: 99%

Question: What about the viability, T/C (second compound 0.003 µM, first compound 3.16 µM) of the same compound?
Answer: 93.7%

Question: And the viability, T/C (second compound 0.003 µM, first compound 10 µM)?
Answer: 98.6%

Question: What about the viability, T/C [9] of the same compound?
Answer: 135%

Question: And the viability, T/C [10]?
Answer: 96.2%

Question: What about the viability, T/C [11] of the same compound?
Answer: 111%

Question: What about the viability, T/C [12] of the same compound?
Answer: 90.8%

Question: What about the viability, T/C (second compound 0.00949 µM, first compound 3.16 µM) of the same compound?
Answer: 100%

Question: And the viability, T/C (second compound 0.00949 µM, first compound 10 µM)?
Answer: 107%

Question: What about the viability, T/C [13] of the same compound?
Answer: 115%

Question: What about the viability, T/C [14] of the same compound?
Answer: 109%

Question: And the viability, T/C [15]?
Answer: 101%

Question: And the viability, T/C [16]?
Answer: 123%

Question: What about the viability, T/C (second compound 0.03 µM, first compound 3.16 µM) of the same compound?
Answer: 122%

Question: And the viability, T/C (second compound 0.03 µM, first compound 10 µM)?
Answer: 97%

Question: What about the viability, T/C [17] of the same compound?
Answer: 108%

Question: What about the viability, T/C [18] of the same compound?
Answer: 118%

Question: What about the viability, T/C [19] of the same compound?
Answer: 100%

Question: And the viability, T/C [20]?
Answer: 107%

Question: And the viability, T/C (second compound 0.0949 µM, first compound 3.16 µM)?
Answer: 111%

Question: What about the viability, T/C (second compound 0.0949 µM, first compound 10 µM) of the same compound?
Answer: 112%

Question: What about the viability, T/C [21] of the same compound?
Answer: 126%

Question: And the viability, T/C [22]?
Answer: 152%

Question: And the viability, T/C [23]?
Answer: 105%

Question: What about the viability, T/C [24] of the same compound?
Answer: 117%

Question: And the viability, T/C (second compound 0.3 µM, first compound 3.16 µM)?
Answer: 110%

Question: And the viability, T/C (second compound 0.3 µM, first compound 10 µM)?
Answer: 106%
